Measured values as given in patent US3951949A, “Sulfates of hydroxyethyl starch” (Ajinomoto Co., Inc., priority 1973, dated 1976).

Columns and labels:
[1] = target: bovine serum albumin (Bos taurus, UniProt P02769); experiment: Inhibition of heat denaturation of serum protein (turbidity); settings: 0.5 (W/V) % bovine serum albumin, test substance 3 × 10^-3 M per repeating unit, 1/15M phosphate buffer PH=5.4, 67°C 3 minutes
Description: Inhibition of heat denaturation of serum proteins is widely used for screening potential pharmaceutical agents for anti-inflammatory activity. The test is described in "Inhibition of Heat Denaturation of Serum Protein," Y. Mizushima, Arch. Int. Pharmacodyn.
In the test, the sodium salt of hydroxyethyl starch sulfate was dissolved in 1/15M phosphate suffer solution (PH=5.4) and to the solution the same phosphate buffer solution containing 1% bovine serum albumin was added in a 1:1 volume ratio. The solution was stirred at 25°C for 20 minutes and then stirred at 67°C for 3 minutes and cooled. The turbidity of the test solutions thus obtained was compared with that of a solution obtained by adding 1/15M phosphate buffer solution containing 1% bovine serum albumin to 1/15M phosphate buffer solution in a 1:1 volume ratio, and the inhibition degree of heat denaturation were calculated.

[2] = tested on: pepsin; experiment: Pepsin inhibition activity; format: biochemical; settings: 0.30% aqueous solution (PH=1.8) 1 ml; 20 μg pepsin 1 ml; 1.5% bovine hemoglobin 1 ml; 30°C, 10 min
Description: The pepsin inhibition activity of the products of the invention was tested. The anti-ulcer activity of the compounds of the invention is evident.
*0.30% Sulfate of hydroxyethyl starch aqueous solution (PH=1.8) 1 ml; 20
μ g pepsin aqueous solution (PH=1.8) 1 ml; 1.5% Bovine hemoglobin

[3] = tested on: hyaluronidase; experiment: Hyaluronidase inhibition activity; format: biochemical; settings: 0.16% in phosphate buffer (PH=7.0) 0.25 ml; hyaluronic acid phosphate buffer (PH=5.3) 0.5 ml; bovine serum albumin buffer (PH=3.75) 5.0 ml; 38°C, 45 minutes
Description: Hyaluronidase inhibition activities of sulfate of hydroxyethyl starch were tested.
*0.16% Sulfate of hydroxyethyl starch phosphate buffer (PH=7.0) 0.25 ml;
hyaluronic acid phosphate buffer (PH=5.3) 0.5 ml; Bovine serum albumin
phosphate buffer (PH=3.75) 5.0 ml 38°C, 45 minutes.

Sequence of bovine serum albumin (P02769 25-607): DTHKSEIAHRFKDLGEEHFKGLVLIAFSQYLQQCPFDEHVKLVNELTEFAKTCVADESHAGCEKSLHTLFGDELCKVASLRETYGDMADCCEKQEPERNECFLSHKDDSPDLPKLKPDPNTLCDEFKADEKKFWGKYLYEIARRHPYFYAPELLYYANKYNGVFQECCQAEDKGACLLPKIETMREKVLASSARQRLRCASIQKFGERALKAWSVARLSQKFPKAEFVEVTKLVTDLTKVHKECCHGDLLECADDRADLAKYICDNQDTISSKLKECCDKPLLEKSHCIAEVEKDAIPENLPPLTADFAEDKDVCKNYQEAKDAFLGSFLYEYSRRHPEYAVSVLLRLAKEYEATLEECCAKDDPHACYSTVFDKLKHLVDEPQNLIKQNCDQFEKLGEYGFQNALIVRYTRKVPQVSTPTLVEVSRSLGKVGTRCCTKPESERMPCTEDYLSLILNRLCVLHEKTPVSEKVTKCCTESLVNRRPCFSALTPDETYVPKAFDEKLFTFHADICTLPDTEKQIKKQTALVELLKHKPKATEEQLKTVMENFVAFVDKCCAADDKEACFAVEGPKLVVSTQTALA

| Inhibition Ratios of Heat Denaturation of Bovine Serum Albumin ([1]; 3 min, 3000 µM) | Inhibition Ratio (hyaluronidase) [3] | Inhibition Ratios of Heat Denaturation of Bovine Serum Albumin [1] | Substance | Pepsin Inhibition Ratio [2] |
| --- | --- | --- | --- | --- |
| 97.6% |  |  | Sodium Salt of Sulfate of Hydroxyethyl Starch [Example 11.1] |  |
|  | 10% |  | Hydroxyethyl Starch [reference compound] | 1% |
| 98.8% |  |  | Sodium Salt of Sulfate of Hydroxyethyl Starch [Example 14.5] |  |
| 98.1% |  |  | Sodium Salt of Sulfate of Hydroxyethyl Starch [Example 8.2] |  |

Continued, substance first:

| Substance | Inhibition Ratios of Heat Denaturation of Bovine Serum Albumin ([1]; 3 min, 3000 µM) | Inhibition Ratio (hyaluronidase) [3] | Inhibition Ratios of Heat Denaturation of Bovine Serum Albumin [1] | Pepsin Inhibition Ratio [2] |
| --- | --- | --- | --- | --- |
| Sodium Salt of Sulfate of Hydroxyethyl Starch [Example 1.6] | 97.9% |  |  |  |
| Sodium Salt of Sulfate of Hydroxyethyl Starch [Example 6.3] | 98.1% |  |  |  |
| sodium salts of sulfate of hydroxyethyl starch [Ex. 6] |  | 96% | 93.4% | 83% |
